≈ marks a conversion by molar mass, not a printed value. Calls of active or inactive are those of the source. The rule behind the calls is not given here.
How the values were obtained:
Clostridioides difficile [1] = experiment: Antimicrobial activity against Clostridium difficile obtained from patient with Clostridium difficile infection assessed as reduction in bacterial cytotoxin B in patients at 200 mg/kg, po BID measured at 21 to 28 days by the two-tailed Wilcoxon matched-pair, signed-rank test; assay type: functional, organism-based; parameters: dose 200 mg/kg
Clostridioides difficile [2] = experiment: Antimicrobial activity against Clostridium difficile obtained from patient with Clostridium difficile infection assessed as reduction in bacterial cytotoxin B in patients at 100 mg/kg, po BID measured at 21 to 28 days by the two-tailed Wilcoxon matched-pair, signed-rank test; assay type: functional, organism-based; parameters: dose 100 mg/kg
Clostridioides difficile [3] = experiment: Antimicrobial activity against Clostridium difficile obtained from patient with Clostridium difficile infection assessed as bacterial count per gram of wet stool at 50 mg/kg, po BID measured on day 4 by the two-tailed Wilcoxon matched-pair, signed-rank test; assay type: functional, organism-based; parameters: dose 50 mg/kg; settings: Feces
Clostridioides difficile [4] = experiment: Antimicrobial activity against Clostridium difficile; assay type: functional
Bacteroides sp. [5] = experiment: Antimicrobial activity against […] Bacteroides sp.; assay type: functional
Bacteroides sp. [6] = experiment: Antimicrobial activity against […] gram-negative Bacteroides sp.; assay type: functional
Bacteroides [7] = experiment: Antimicrobial activity against Bacteroides group obtained from patient with Clostridium difficile infection assessed as bacterial count per gram of wet stool at 50 mg/kg, po BID measured on day 10 by the two-tailed Wilcoxon matched-pair, signed-rank test; assay type: functional, Feces
Bacteroides [8] = experiment: Antimicrobial activity against Bacteroides group obtained from patient with Clostridium difficile infection assessed as bacterial count per gram of wet stool at 100 mg/kg, po BID measured on day 10 by the two-tailed Wilcoxon matched-pair, signed-rank test; assay type: functional, Feces
Bacteroides [9] = experiment: Antimicrobial activity against Bacteroides group obtained from patient with Clostridium difficile infection assessed as bacterial count per gram of wet stool at 200 mg/kg, po BID measured on day 10 by the two-tailed Wilcoxon matched-pair, signed-rank test; assay type: functional, Feces
Clostridioides difficile [10] = experiment: Antimicrobial activity against Clostridium difficile obtained from patient with Clostridium difficile infection assessed as bacterial count per gram of wet stool at 50 mg/kg, po BID measured on day 10 by the two-tailed Wilcoxon matched-pair, signed-rank test; assay type: functional, organism-based; parameters: dose 50 mg/kg; settings: Feces
Clostridioides difficile [11] = experiment: Antimicrobial activity against Clostridium difficile obtained from patient with Clostridium difficile infection assessed as bacterial count per gram of wet stool at 100 mg/kg, po BID measured on day 10 by the two-tailed Wilcoxon matched-pair, signed-rank test; assay type: functional, organism-based; parameters: dose 100 mg/kg; settings: Feces
Clostridioides difficile [12] = experiment: Antimicrobial activity against Clostridium difficile obtained from patient with Clostridium difficile infection assessed as bacterial count per gram of wet stool at 200 mg/kg, po BID measured on day 10 by the two-tailed Wilcoxon matched-pair, signed-rank test; assay type: functional, organism-based; parameters: dose 200 mg/kg; settings: Feces
Clostridioides difficile [13] = experiment: Antimicrobial activity against Clostridium difficile obtained from patient with Clostridium difficile infection assessed as bacterial count per gram of wet stool at 100 mg/kg, po BID measured on day 4 by the two-tailed Wilcoxon matched-pair, signed-rank test; assay type: functional, organism-based; parameters: dose 100 mg/kg; settings: Feces
Clostridioides difficile [14] = experiment: Antimicrobial activity against Clostridium difficile obtained from patient with Clostridium difficile infection assessed as bacterial count per gram of wet stool at 200 mg/kg, po BID measured on day 4 by the two-tailed Wilcoxon matched-pair, signed-rank test; assay type: functional, organism-based; parameters: dose 200 mg/kg; settings: Feces
Clostridioides difficile [15] = experiment: Antimicrobial activity against Clostridium difficile obtained from patient with Clostridium difficile infection assessed as bacterial count per gram of wet stool at 200 mg/kg, po BID measured on day 8 by the two-tailed Wilcoxon matched-pair, signed-rank test; assay type: functional, organism-based; parameters: dose 200 mg/kg; settings: Feces
Clostridioides difficile [16] = experiment: Antimicrobial activity against Clostridium difficile obtained from patient with Clostridium difficile infection assessed as bacterial count per gram of wet stool at 50 mg/kg, po BID measured at 21 to 28 days by the two-tailed Wilcoxon matched-pair, signed-rank test; assay type: functional, Feces
Clostridioides difficile [17] = experiment: Antimicrobial activity against Clostridium difficile obtained from patient with Clostridium difficile infection assessed as bacterial count per gram of wet stool at 100 mg/kg, po BID measured at 21 to 28 days by the two-tailed Wilcoxon matched-pair, signed-rank test; assay type: functional, Feces
Clostridioides difficile [18] = experiment: Antimicrobial activity against Clostridium difficile obtained from patient with Clostridium difficile infection assessed as bacterial count per gram of wet stool at 200 mg/kg, po BID measured at 21 to 28 days by the two-tailed Wilcoxon matched-pair, signed-rank test; assay type: functional, Feces
Bacteroides [19] = experiment: Antimicrobial activity against Bacteroides group obtained from patient with Clostridium difficile infection assessed as bacterial count per gram of wet stool at 125 mg/kg, po administered QID measured on day 10 by the two-tailed Wilcoxon matched-pair, signed-rank test; assay type: functional, Feces
Clostridioides difficile [20] = experiment: Antimicrobial activity against Clostridium difficile obtained from patient with Clostridium difficile infection assessed as bacterial count per gram of wet stool at 125 mg/kg, po BID measured on day 10 by the two-tailed Wilcoxon matched-pair, signed-rank test; assay type: functional, organism-based; parameters: dose 125 mg/kg; settings: Feces
Clostridioides difficile [21] = experiment: Antimicrobial activity against Clostridium difficile obtained from patient with Clostridium difficile infection assessed as bacterial count per gram of wet stool at 125 mg/kg, po BID measured on day 4 by the two-tailed Wilcoxon matched-pair, signed-rank test; assay type: functional, organism-based; parameters: dose 125 mg/kg; settings: Feces
Clostridioides difficile [22] = experiment: Antimicrobial activity against Clostridium difficile obtained from patient with Clostridium difficile infection assessed as bacterial count per gram of wet stool at 125 mg/kg, po BID measured at 21 to 28 days by the two-tailed Wilcoxon matched-pair, signed-rank test; assay type: functional, Feces

CCc1c(Cl)c(O)c(Cl)c(O)c1C(=O)O[C@H]1[C@H](O)[C@H](OC)[C@H](OC/C2=C\C=C\C[C@H](O)/C(C)=C/[C@H](CC)[C@@H](O[C@@H]3OC(C)(C)[C@@H](OC(=O)C(C)C)[C@H](O)[C@@H]3O)/C(C)=C/C(C)=C/C[C@@H]([C@@H](C)O)OC2=O)O[C@@H]1C [FIDAXOMICIN]
Activity (Clostridioides difficile [1]): Active | Activity (Clostridioides difficile [2]): Active | Activity (Clostridioides difficile [3]): Active | MIC90 (Clostridioides difficile [4]): 0.12 µg/mL (≈ 0.113 µM) | MIC90 (Bacteroides sp. [5]): > 1020 µg/mL | MIC90 (Bacteroides sp. [6]): > 1020 µg/mL | log10cfu (Bacteroides [7]): 8.2 | log10cfu (Bacteroides [8]): 6.3 | log10cfu (Bacteroides [9]): 7.3 | Activity (Clostridioides difficile [10]): Active | Activity (Clostridioides difficile [11]): Active | Activity (Clostridioides difficile [12]): Active | Activity (Clostridioides difficile [13]): Active | Activity (Clostridioides difficile [14]): Active | Activity (Clostridioides difficile [15]): Active | log10cfu (Clostridioides difficile [16]): 3.9 | log10cfu (Clostridioides difficile [17]): 3.6 | log10cfu (Clostridioides difficile [18]): 3.1

CN[C@H](CC(C)C)C(=O)N[C@H]1C(=O)N[C@@H](CC(N)=O)C(=O)N[C@H]2C(=O)N[C@H]3C(=O)N[C@H](C(=O)N[C@H](C(=O)O)c4cc(O)cc(O)c4-c4cc3ccc4O)[C@H](O)c3ccc(c(Cl)c3)Oc3cc2cc(c3O[C@@H]2O[C@H](CO)[C@@H](O)[C@H](O)[C@H]2O[C@H]2C[C@](C)(N)[C@H](O)[C@H](C)O2)Oc2ccc(cc2Cl)[C@H]1O [VANCOMYCIN]
log10cfu (Bacteroides [19]): 3.6 | Activity (Clostridioides difficile [20]): Active | Activity (Clostridioides difficile [21]): Active | log10cfu (Clostridioides difficile [22]): 5.4
